Source: patent US9481676B2, “Azepino[4,5-B]indoles and methods of use” (Medivation Technologies, Inc., priority 2008, dated 2016)

How the values were obtained:
[1] = biological target: T1, human recombinant histamine H1 receptor (Homo sapiens, UniProt P35367); assay: Histamine H1 radioligand binding ([3H]Pyrilamine); settings: compound at 1 μM; read-out: Histamine Binding (1 μM) H1, percent inhibition of specific binding
T1 construct: expressed in transfected cells; host or cells: CHO cells
Outline: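 Membranes from CHO cells expressing the receptor were incubated with compound and 1.2 nM [3H]pyrilamine for 180 min at 25 °C in 50 mM Tris-HCl pH 7.4 with MgCl2, NaCl and sucrose; 1 μM pyrilamine defined non-specific binding. Filter-bound radioactivity was counted.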

[2] = biological target: T2, human recombinant dopamine D2L receptor (Homo sapiens, UniProt P14416); assay: Dopamine D2L radioligand binding ([3H]Spiperone); settings: compound at 1 μM; read-out: Dopamine (1 μM) D2L, percent inhibition of specific binding
T2 construct: expressed in transfected cells; host or cells: CHO cells
Outline: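 Binding measured by filtration and counting, reported as % inhibition of specific [3H]spiperone binding (0.16 nM tracer; 10 μM haloperidol for nonspecific). Compounds tested at ≤1 μM in 1% DMSO for 120 min at 25° C against CHO-expressed human D2L in pH 7.4 Tris-HCl buffer.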

[3] = biological target: T3, human recombinant serotonin (5-Hydroxytryptamine) 5-HT2A receptor (Homo sapiens, UniProt P28223); assay: Serotonin 5-HT2A radioligand binding ([3H]Ketanserin); settings: compound at 1 μM; read-out: Serotonin (1 μM) 5-HT2A, percent inhibition of specific binding
T3 construct: expressed in transfected cells; host or cells: CHO-K1 cells
Outline: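 Percent inhibition of specific [3H]ketanserin (0.5 nM) binding, filtration read-out, with compounds at ≤1 μM (1% DMSO vehicle). Receptor source: recombinant human 5-HT2A in CHO-K1 cells, 50 mM Tris-HCl pH 7.4, 60 min, 25 °C; 1 μM mianserin gives nonspecific binding.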

[4] = biological target: T4, human recombinant serotonin (5-Hydroxytryptamine) 5-HT2C receptor (Homo sapiens, UniProt P28335); assay: Serotonin 5-HT2C radioligand binding ([3H]Mesulergine); settings: compound at 1 μM; read-out: Serotonin (1 μM) 5-HT2C, percent inhibition of specific binding
T4 construct: expressed in transfected cells; host or cells: CHO-K1 cells
T4 sequence (P28335 33-458): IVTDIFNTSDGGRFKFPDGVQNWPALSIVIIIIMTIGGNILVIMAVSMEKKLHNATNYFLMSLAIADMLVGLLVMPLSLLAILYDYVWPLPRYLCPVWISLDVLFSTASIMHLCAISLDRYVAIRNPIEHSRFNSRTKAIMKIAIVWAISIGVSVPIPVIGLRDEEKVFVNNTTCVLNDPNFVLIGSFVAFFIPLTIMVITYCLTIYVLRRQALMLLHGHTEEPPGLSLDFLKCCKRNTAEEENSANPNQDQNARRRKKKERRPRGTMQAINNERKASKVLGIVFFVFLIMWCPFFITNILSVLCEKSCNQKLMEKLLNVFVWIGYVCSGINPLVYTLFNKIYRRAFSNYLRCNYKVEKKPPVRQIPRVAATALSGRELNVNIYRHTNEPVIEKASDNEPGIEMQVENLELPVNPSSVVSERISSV
Outline: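 Membranes from CHO-K1 cells expressing human 5-HT2C, incubated with 1 nM [3H]mesulergine for 60 min at 25 °C in 50 mM Tris-HCl pH 7.4 with ascorbic acid and pargyline.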

T2 sequence (P14416 whole entry): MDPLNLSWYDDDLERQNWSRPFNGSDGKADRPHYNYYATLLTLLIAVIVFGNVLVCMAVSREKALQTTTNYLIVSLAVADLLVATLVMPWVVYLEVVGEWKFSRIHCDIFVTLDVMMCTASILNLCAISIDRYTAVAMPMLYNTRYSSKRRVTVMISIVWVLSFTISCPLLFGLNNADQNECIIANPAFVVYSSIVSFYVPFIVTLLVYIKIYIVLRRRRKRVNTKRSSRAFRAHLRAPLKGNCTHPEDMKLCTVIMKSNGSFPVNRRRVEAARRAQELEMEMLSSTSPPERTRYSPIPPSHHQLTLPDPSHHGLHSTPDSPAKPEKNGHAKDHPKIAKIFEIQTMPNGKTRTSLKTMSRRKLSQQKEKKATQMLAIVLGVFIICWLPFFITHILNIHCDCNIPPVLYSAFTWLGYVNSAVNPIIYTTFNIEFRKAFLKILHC
T1 sequence (P35367 whole entry): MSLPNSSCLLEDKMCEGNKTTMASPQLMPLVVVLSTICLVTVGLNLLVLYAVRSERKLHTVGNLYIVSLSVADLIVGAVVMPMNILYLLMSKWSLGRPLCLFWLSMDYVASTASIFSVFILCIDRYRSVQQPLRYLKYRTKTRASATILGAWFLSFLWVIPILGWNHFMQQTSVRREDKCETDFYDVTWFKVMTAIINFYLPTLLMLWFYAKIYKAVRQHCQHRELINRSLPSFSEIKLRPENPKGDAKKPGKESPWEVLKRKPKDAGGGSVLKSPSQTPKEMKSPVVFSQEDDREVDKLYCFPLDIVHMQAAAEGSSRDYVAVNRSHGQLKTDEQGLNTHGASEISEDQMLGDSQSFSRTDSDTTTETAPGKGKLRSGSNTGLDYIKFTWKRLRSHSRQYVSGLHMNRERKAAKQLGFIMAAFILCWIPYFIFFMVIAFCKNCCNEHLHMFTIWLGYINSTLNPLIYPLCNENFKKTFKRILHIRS
T3 sequence (P28223 whole entry): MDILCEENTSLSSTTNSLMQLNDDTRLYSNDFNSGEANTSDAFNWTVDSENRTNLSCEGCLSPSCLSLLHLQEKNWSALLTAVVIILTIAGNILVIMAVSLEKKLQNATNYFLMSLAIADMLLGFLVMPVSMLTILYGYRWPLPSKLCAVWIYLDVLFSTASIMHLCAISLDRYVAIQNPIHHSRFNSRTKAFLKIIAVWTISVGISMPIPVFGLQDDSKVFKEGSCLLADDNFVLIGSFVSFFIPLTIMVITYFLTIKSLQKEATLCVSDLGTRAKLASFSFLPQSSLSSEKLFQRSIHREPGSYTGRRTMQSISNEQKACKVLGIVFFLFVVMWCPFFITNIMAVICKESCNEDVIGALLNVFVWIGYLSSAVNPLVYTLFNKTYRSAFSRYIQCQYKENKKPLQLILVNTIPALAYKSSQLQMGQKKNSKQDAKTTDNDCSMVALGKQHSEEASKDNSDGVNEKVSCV

Row | Compound | inhibition at 1 µM [1] [%] | inhibition at 1 µM [2] [%] | inhibition at 1 µM [3] [%] | inhibition at 1 µM [4] [%]
1 | CN1CCc2c(n(CCc3ccc(C(F)(F)F)nc3)c3ccc(Cl)cc23)CC1 [Compound No. 1, 9-chloro-6-(2-(6-(trifluoromethyl)pyridin-3-yl)ethyl)-1,2,3,4,5,6-hexahydro-3-methylazepino[4,5-b]indole] | 96 | 23 | 98 | 79
2 | C/C(=C\n1c2c(c3cc(Cl)ccc31)CCN(C)CC2)c1ccc(F)cc1 [Compound No. 2, 9-chloro-6-((E)-2-(4-fluorophenyl)prop-1-enyl)-1,2,3,4,5,6-hexahydro-3-methylazepino[4,5-b]indole] | 93 | 97 | 99 | 88
3 | Cc1cncc(CCn2c3c(c4cc(Cl)ccc42)CCN(C)CC3)c1 [Compound No. 3, 9-chloro-3-methyl-6-(2-(5-methylpyridin-3-yl)ethyl)-1,2,3,4,5,6-hexahydroazepino[4,5-b]indole] | 102 | 27 | 95 | 94
4 | CC1CCN(C(=O)Cn2c3c(c4cc(Cl)ccc42)CCN(C)CC3)CC1 [Compound No. 76, 2-(9-chloro-2,3,4,5-tetrahydro-3-methylazepino[4,5-b]indol-6(1H)-yl)-1-(4-methylpiperidin-1-yl)ethanone] | 95 | 0 | 52 | 78
5 | COc1ccc(C(O)Cn2c3c(c4cc(Cl)ccc42)CCN(C)CC3)cc1OC (stereo not drawn) [Compound No. 77, 2-(9-chloro-2,3,4,5-tetrahydro-3-methylazepino[4,5-b]indol-6(1H)-yl)-1-(3,4-dimethoxyphenyl)ethanol] | 97 | 16 | 90 | 72
6 | COc1ccc(/C=C/n2c3c(c4cc(Cl)ccc42)CCN(C)CC3)cc1 [Compound No. 78, 6-(4-methoxystyryl)-9-chloro-1,2,3,4,5,6-hexahydro-3-methylazepino[4,5-b]indole] | 100 | 58 | 100 | 98
7 | Cc1ccc2c(c1)c1c(n2CC(=O)Nc2ccccc2)CCN(C)CC1 [Compound No. 79, 2-(2,3,4,5-tetrahydro-3,9-dimethylazepino[4,5-b]indol-6(1H)-yl)-N-phenylacetamide] | 6 | -7 | -8 | -18
8 | C=C(Cn1c2c(c3cc(Cl)ccc31)CCN(C)CC2)c1ccc(F)cc1 [Compound No. 82, 9-chloro-6-(2-(4-fluorophenyl)allyl)-3-methyl-1,2,3,4,5,6-hexahydroazepino[4,5-b]indole] | 103 | 90 | 98 | 98
9 | CN1CCc2c(n(/C=C/c3ccccc3F)c3ccc(Cl)cc23)CC1 [Compound No. 83, (E)-9-chloro-6-(2-fluorostyryl)-3-methyl-1,2,3,4,5,6-hexahydro azepino[4,5-b]indole] | 97 | 61 | 99 | 100
10 | C/C(=C/n1c2c(c3cc(Cl)ccc31)CCN(C)CC2)c1ccc(Cl)cc1Cl [Compound No. 152, (Z)-9-chloro-6-(2-(2,4-dichlorophenyl)prop-1-enyl)-1,2,3,4,5,6-hexahydro-3-methylazepino[4,5-b]indole] | 91 | 3 | 100 | 94
11 | COc1ccc(/C=C/n2c3c(c4cc(Cl)ccc42)CCN(C)CC3)cc1F [Compound No. 158, (E)-6-(3-fluoro-4-methoxystyryl)-9-chloro-1,2,3,4,5,6-hexahydro-3-methylazepino[4,5-b]indole] | 98 | 65 | 101 | 99
12 | C/C(=C/n1c2c(c3cc(C)ccc31)CCN(C)CC2)c1ccc(Cl)cc1Cl [Compound No. 174, (Z)-6-(2-(2,4-dichlorophenyl)prop-1-enyl)-1,2,3,4,5,6-hexahydro-3,9-dimethylazepino[4,5-b]indole] | 98 | 34 | 102 | 101
13 | COc1ccc(/C=C/n2c3c(c4cc(C)ccc42)CCN(C)CC3)cc1F [Compound No. 180, (E)-6-(3-fluoro-4-methoxystyryl)-1,2,3,4,5,6-hexahydro-3,9-dimethylazepino[4,5-b]indole] | 97 | 62 | 101 | 100
14 | Cc1ccc2c(c1)c1c(n2CC(=O)N2CCNCC2)CCN(C)CC1 [Compound No. 224, 2-(3,9-dimethyl-2,3,4,5-tetrahydroazepino[4,5-b]indol-6(1H)-yl)-1-(piperazin-1-yl)ethanone] | 33 | -2 | -7 | 11
15 | Cc1ccc2c(c1)c1c(n2CC(=O)N2CCC(C)CC2)CCN(C)CC1 [Compound No. 225, 2-(3,9-dimethyl-2,3,4,5-tetrahydroazepino[4,5-b]indol-6(1H)-yl)-1-(4-methylpiperidin-1-yl)ethanone] | 95 | 3 | 38 | 44
16 | COc1ccc(/C=C/n2c3c(c4cc(Cl)ccc42)CCN(C)CC3)cc1OC [Compound No. 226, (E)-9-chloro-6-(3,4-dimethoxystyryl)-3-methyl-1,2,3,4,5,6-hexahydroazepino[4,5-b]indole] | 99 | 37 | 92 | 82
17 | COc1ccc(C(O)Cn2c3c(c4cc(C)ccc42)CCN(C)CC3)cc1OC (stereo not drawn) [Compound No. 227, 1-(3,4-dimethoxyphenyl)-2-(3,9-dimethyl-2,3,4,5-tetrahydroazepino[4,5-b]indol-6(1H)-yl)ethanol] | 95 | 5 | 85 | 66
18 | CN1CCc2c(n(/C=C/c3ccccc3)c3ccc(Cl)cc23)CC1 [Compound No. 228, (E)-9-chloro-3-methyl-6-styryl-1,2,3,4,5,6-hexahydroazepino[4,5-b]indole] | 99 | 73 | 99 | 97
